In one data set the test system is HeLa cells. Nature of the data set: pH dependence of the effectiveness of cytostatic agents (live cell count, trypan blue). It is filed as cell-based, Human. The note with it: pH 7.4 vs pH 6.8, 24 hours, FIG. 3. As to the method:
The number of live cells was determined after vital staining using trypan blue in Neubauer's counting chamber.

For data set [1], the system named is Bronchial carcinoma cells (SCLC). Nature of the data set: Anti-tumoral effect on a human parvocellular bronchial carcinoma in naked mice. It is filed as in vivo, Nu/Nu mice, strain NMRI. Particulars: 10 mg/kg intravenously, SCLC tumors about 8 mm, FIG. 1. As to the method:
a) Anti-Tumoral Effect on a Human Parvocellular Bronchial Carcinoma in Naked Mice
Bronchial carcinoma cells (SCLC) were implanted under the skin of six-week-old Nu/Nu mice, strain NMRI (5×10^6 cells in 0.1 ml common salt solution). The tumors had reached a size of about 8 mm after two weeks. Then, five animals each were treated intravenously with either 0.2 ml common salt solution/[…]/1% acetone (control group) or with 10 mg/kg compound according to Example 1 in common salt solution/1% BSA/1% acetone (treated group). The tumor growth was controlled daily. The values are shown in enclosed FIG. 1.

Data set [2] in a line: Body weight of the xenotransplant group suffering from parvocellular pulmonary carcinoma. It is filed as in vivo, Nu/Nu-Swiss mice. As for the experimental part:
The tumor sizes were determined in two directions and the relative tumor growth was calculated.
(C): Average body weights of the group suffering from parvocellular pulmonary carcinoma. The standard deviations were less than 3%.

The subject of data set [3] is Colon carcinoma cells (SW707). Nature of the data set: Anti-tumoral effect on a human colon carcinoma in naked mice. It is filed as in vivo, Nu/Nu mice, strain NMRI. The note with it: SW707 tumors about 10 mm, FIG. 2. From the text: b) Anti-Tumoral Effect of a Compound According to Example 1 on a Human Colon Carcinoma in Naked Mice Colon carcinoma cells (SW707) were implanted under the skin of 6-week-old Nu/Nu mice, strain NMRI (5×10^6 cells in common salt solution).

For data set [4], the system named is SW707 cells of a colorectal carcinoma. The data set can be described thus: Antitumoral effect on human xenotransplants, SW707. It is filed as in vivo, Nu/Nu-Swiss mice. The note with it: single i.p. injection 10 mg/kg, FIG. 4B.
For the next data set, the system named is cell lines. Nature of the data set: Dependence of the cytotoxicity on the pH value, all cell lines of the table. It is filed as cell-based. Particulars: pH 6.8 vs pH 7.4, cell lines of the table. As for the experimental part: Cells were plated in Linbro dishes or plates and, after 4 hours, the cells were fed with a medium which included either 2.2 g/l (pH 7.4) or 0.85 g/l (pH 6.8) NaHCO3.

For data set [5], the system named is Human H10 cells of a parvocellular bronchial carcinoma. Nature of the data set: Antitumoral effect on human xenotransplants, H10. It is filed as in vivo, Nu/Nu-Swiss mice. The note with it: single i.p. injection 10 mg/kg, FIG. 4A.

Take `CCOC1=[S+][Pt-2]2([S]1)[S]C(OCC)=[S+]2` [Example 1, bis-[O-ethyldithiocarbanato]Platinum (II)]: in the data set with HeLa cells, the “pH dependence of effectiveness” value is “effective maximum in the slightly acidic range”. In addition, the tumor size result in data set [1] is “decreased in size”. For the same molecule, the weight loss entry in data set [2] (mouse, in vivo, ip, 10 mg/kg) is reported as “no weight loss”. Also, the tumor growth result in data set [3] (7.5 mg/kg intravenously (treated group I)) was “tumor growth was slowed down”. In data set [4], the “effect on tumor growth” value was “tumor growth could be prevented”.

With `N.N.[Cl][Pt][Cl]` [cisplatin], in the data set with HeLa cells, the “pH dependence of effectiveness” value is reported as “better effects in the alkaline range”. In addition, the “pH effect on IC50” value in the data set on cell lines was “poorer with pH 6.8 than with pH 7.4 or there was no detectable pH effect”. The “tumor size as compared to the control group” value in data set [5] is 50%. Further, the weight loss amounted to 12% in data set [2] (day 3 after the treatment, 10 mg/kg i.p., FIG. 4C) and 13% in data set [2] (day 6 after the treatment, 10 mg/kg i.p., FIG. 4C). The tumor growth entry in data set [3] (10 mg/kg intravenously (treated group II)) is reported as “constant tumor growth”. The “effect on tumor growth” value in data set [4] is listed as “no effect”.

(Values after US6881751B2, “Medicament containing platinum complex compounds and the use thereof” (Ruprecht Karls Universitat, priority 1998, dated 2005).)
